Results reported in patent publication US20160066550A1, “Animal Model Expressing Luciferase under Control of the Myelin Basic Protein Promoter (MBP-luci) and Use of the Model for Bioluminescence In Vivo Imaging” (SANOFI, priority 2009, published 2016).
Read-outs that look alike come from different tables or passages of the source.

Assays:
[1] = test system: MBP-luc line 171 heterozygous B6C3H mice; experiment: MBP-luci bioimaging, cuprizone model, demyelination phase, line 171 heterozygous; format: in vivo, mouse
Method: (§1) Mice were imaged at week 0 (baseline), week 3 and week 4 data normalized to the week 0 baseline.
As described above, mice were injected with 250 mg/kg D-luciferin through SC, IP or IV. After 5 (intravenous) or 8 (intraperitoneal or SC) minutes, mice were imaged using the IVIS 100 (Xenogen) for 16 minutes (60 seconds imaging and 60 seconds interval for 8 pictures at bin size 8). To quantify bioluminescence, identical circular regions of interest were positioned to encircle each mouse head region, and the imaging signal was quantitated as average radiance (photons/s/cm2/steridian) using […] software (version 2.5, Xenogen). The head region of interest was kept constant in area and positioning within all experiments. Data were normalized to bioluminescence at the initiation of treatment for each animal.
as §1

[2] = test system: MBP-luci mice; format: in vivo, mouse; conditions: 0.2% cuprizone diet; for imaging signal drop: MBP 5k-luci line 171 (B6C3)
Method: To quantify bioluminescence, identical circular regions of interest were positioned to encircle each mouse head region, and the imaging signal was quantitated as average radiance (photons/s/cm2/steridian) using […] software (version 2.5, Xenogen).
As further proof, a MBP 5k-luci line 171 (B6C3 strain) was tested. […] There was significant imaging signal drop with cuprizone treatment (demyelination). For example, there is 43% signal drop from wk 0 to wk 4 and 74% signal drop from wk 0 to wk 6.
Three different MBP-luci lines (line 171 B6C3H het strain, line 121 C57BL/6 heterozygous strain and line 171 B6C3H homozygous strain) were compared by bioimaging and Luxol Fast Blue (LFB; myelin stain) histology. Mice were placed on a diet containing 0.2% cuprizone for 4 or 5 weeks. Imaging data were normalized to week 0 baseline measurements. At the end of each study, mouse brains were harvested and serial paraffin sections were stained for myelin with LFB. Average qualitative LFB score (0 to 5) was shown in the chart of FIG. 21. […] Line 171 B6C3H homozygous mice had the largest bioimaging signal reduction during cuprizone food feeding in the reference to their base line imaging before cuprizone food feeding. For example, after three weeks on the cuprizone diet, 171 B6C3H homozygous mice had 72% signal reduction (week 3 reference to week 0, p<0.05), while line 171 B6C3H heterozygous mice had 45% bioimaging signal reduction (reference to week 0, p<0.05). Line 121 C57 BL/6 heterozygous mice had the smallest reduction in luciferase signal (33% reduction at week 3 over week 0, p<0.05).

Row | SMILES | imaging signal vs vehicle control ([1]; 10 mg/kg oral, week 3 and week 4 on cuprizone diet, first study (FIG. 17)) | cuprizone-induced bioimaging signal reduction ([1]; 10 mg/kg, week 3, second study (FIG. 18), vehicle 47% reduction, p=0.028) [%] | bioimaging signal increase ([1]; 10 mg/kg, week 4, second study (FIG. 18), vehicle 25% reduction) [%] | transgene activity compared to the vehicle control group ([1]; 10 mg/kg, weeks 3 and 4, second study (FIG. 18)) | imaging signal drop ([2]; wk 0 to wk 4) [%] | imaging signal drop ([2]; wk 0 to wk 6) [%] | reduction in luciferase signal ([2]; week 3 over week 0, line 121 C57 BL/6 heterozygous, p<0.05) [%] | bioimaging signal reduction ([2]; week 3 vs week 0, line 171 B6C3H heterozygous, p<0.05) [%] | bioimaging signal reduction ([2]; week 3 vs week 0, line 171 B6C3H homozygous, p<0.05) [%]
1 | OCCOCCN1CCN(C2=Nc3ccccc3Sc3ccccc32)CC1 [QTP, Quetiapine] | significant increases | 25 | 6 | significantly greater transgene activity |  |  |  |  | 
2 | O=C(NN=C1CCCCC1)C(=O)NN=C1CCCCC1 [cuprizone, bis-cyclohexanone oxaidihydrazone] |  |  |  |  | 43 | 74 | 33 | 45 | 72
